From patent publication US20100113602A1, “USE OF HISTONE DEACETYLASE INHIBITORS FOR THE TREATMENT OF CENTRAL NERVOUS SYSTEM METASTASES” (The United States of America,as represented by the …, priority 2007, published 2010)
In brackets after ≈: the same amount, converted by molar mass.

How the values were obtained:
Format in all cases: cell-based, human
231-BR cells [1] = experiment: 48-well Boyden chamber chemotaxis (motility) assay; settings: 24 hours drug treatment, 4 hours migration, SAHA 5 μM, depsipeptide 10 ng/mL, VPA 10 mM, TSA 100 ng/mL, ± standard deviation; for Motility Data, mean number of cells that migrate per well, 0.5% FCS: 0.5% FCS chemoattractant; for Motility Data, mean number of cells that migrate per well, Control: Control (no FCS chemoattractant)
Method: 231-BR Cells are used as described in Example 2. A 48-well Boyden chemotaxis chamber is used. Polycarbonate PVP-free Nucleopore filters (8 μm pore size) are coated with 0.01% collagen (BD Bioscience). […] Drug concentrations used are as described in Example 2. 231-BR cells, after 24 hours of vorinostat, other drug treatment, or control are added to the top chamber in DMEM with 1 mg/ml BSA at a concentration of 2×10^6 cells/ml. Chambers are incubated for 4 hours in a 37° C. incubator with 5% CO2. After chambers are disassembled, filters are fixed and stained with reagents from a Diff-Quik® Kit (Fischer Scientific). Cells that migrate through the Boyden chamber are counted using a light microscope. Representative areas are counted to determine the number of cells that have migrated for each well. Data in Table 5 are shown as mean number of cells±standard deviation that migrate per well. Analysis of variance (ANOVA) is used to assess in vitro functions of vehicle treated versus vorinostat treated cells. P values can be two-tailed. Tests can be performed using GraphPad InStat version 3.0 software.

231-BR cells [2] = experiment: MTT proliferation / colonization assay of 231-BR cells; settings: for Colonization Data, % Control: 231-BR cells, 72-hour incubation, SAHA 5 μM, depsipeptide 10 ng/mL, VPA 10 mM, TSA 100 ng/mL, ± standard deviation
Method: The prepared cells are plated at a density of 15,000 cells/well in a 96 well plate and incubated for 3 hours to permit attachment. Cells are then washed with PBS, and media containing either 0.1% or 1% FBS is added to the cells. […] After a 72-hour incubation, 0.5 mg/mL MTT (Sigma, St. Louis, Mo.) is added and plates are incubated for 2 hours. Media is then aspirated, and MTT dissolved in DMSO for 30 minutes, after which the absorbance is read at a wavelength of 570 nm. […] Data in Table 4 is shown as percent of colonies formed±standard deviation compared to untreated controls. Results are representative of three independent experiments in quintuplicate. Analysis of variance (ANOVA) is used to assess in vitro functions of vehicle treated versus vorinostat treated cells. P values can be two-tailed. Tests can be performed using GraphPad InStat version 3.0 software.

[3] = system: acetyl Histone H3, acetyl histone H4, p21; experiment: Western blot of 231-BR cell lysates after HDI treatment; settings: 231-BR cells; depsipeptide 10 ng/mL or SAHA 5 μM; 0, 8, 24, 48 hours
Method: All cell lines are deemed free of mycoplasma and human pathogens and test negative in mouse antibody production (MAP) tests. […] Drug solution is added once at the beginning and left on the cells for the indicated duration (0, 8, 24, and 48 hours). Controls are performed in the same way with the same amount of vehicle solution for each drug, but without the drug. The vehicle can be DMSO. Cells are lysed according to standard procedures and Western blotting is performed. Primary antibodies specific to the targeted proteins are used including antibodies specific to acetyl Histone H3, acetyl histone H4, p21, and α-tubulin. Horseradish peroxidase-conjugated secondary antibodies purchased from Santa Cruz Biotechnology (Santa Cruz, Calif.) are used at dilutions of 1:5000. Proteins are visualized using enhanced chemilluminescence (Cell Signaling) and autoradiography. […] As histones H3 and H4 become hyperacetylated, protein levels of the cyclin-dependent kinase inhibitor p21 increase. Those changes indicate HDAC inhibition.

Row | SMILES | Motility Data, mean number of cells that migrate per well, 0.5% FCS (231-BR cells [1]) | Motility Data, mean number of cells that migrate per well, Control (231-BR cells [1]) | Colonization Data, % Control (231-BR cells [2]) [% Control] | acetylation of histones H3 and H4 (Western blot) [3] | protein levels of the cyclin-dependent kinase inhibitor p21 (Western blot) [3] | dose at which noticeable inhibition occurs (231-BR cells [2]; 231BR cells) [µg/mL] | IC50 (231-BR cells [2]; Homo sapiens, read-out: IC50 (growth inhibition, absorbance at 570 nm)) [µg/mL]
1 | CC(/C=C/C(=O)NO)=C\[C@@H](C)C(=O)c1ccc(N(C)C)cc1 [Trichostatin (TSA), trichostatin] | 785 ± 17 | 108 ± 13 | 30 ± 3.4 |  |  |  | 
2 | C/C=C1\NC(=O)[C@H]2CSSCC/C=C/[C@H](CC(=O)N[C@H](C(C)C)C(=O)N2)OC(=O)[C@H](C(C)C)NC1=O [Depsipeptide] | 678 ± 33 | 129 ± 23 | 10 ± 2.5 | hyperacetylated | increase | ≥ 0.001 | 1.5 (≈ 2.77 µM)
3 | CCCC(CCC)C(=O)O [Valporic Acid, valproic acid] | 755 ± 37 | 242 ± 55 | 46 ± 5.3 |  |  |  | 
